Measurements from patent US11360104B2, “Microbial-based biosensors” (TRUSTEES OF BOSTON UNIVERSITY, priority 2017, dated 2022).
Like-named read-outs stand apart in the source and are kept apart here. Each block holds one compound with its values, some of them ahead of it. {Cy5} = Cy5 fluorescent dye attached at the strand end

Key:
[1] = tested on: Pimelobacter simplex PinR (AIY20223.2; SEQ ID NO: 1), his-tagged (AIY-his6); test: QD-FRET steroid sensor (QD-PinR + DNA-Cy5), steroid-induced TF-DNA unbinding; type: biochemical; conditions: sensor 3 in HEPES 1×; 0 to 10 uM steroid
Method: (§1) Fluorescent spectra were analyzed using MATLAB (Mathworks) and were fitted with a sum of 2 Gaussians (D=QD: FWHM=27 nm, λmax=607 nm; A=DNA-Cy5: FWHM=40 nm, λmax=669 nm). The area of each Gaussian was extracted and FD and FA are obtained respectively for the fluorescence of QD (donor) and Cy5 (acceptor).
Raw dose-response curves were obtained by plotting FA/FD as a function of the steroid concentration. Sensor output is the normalization of the fluorescent spectra of the donor and acceptor according to the following equation: […]
Non-normalized dose-response were fitted with Origin Pro 8 software with the non-linear equation: […]
The cross-reactivity of progesterone regarding the different steroids was calculated with the following equation: […]
CdSe/CdS/ZnS QDs were coated with a zwitterionic polymer bearing histamine anchoring functions (P1, SI). Once the hydrophobic QDs were transferred into H2O using a biphasic ligand exchange, his-tagged TFs were self-assembled on the QD surface to produce the QD-TF. Addition of the double stranded, Cy5-labeled TF-binding sequence completed probe assembly as the oligo binds to the TF in the absence of progesterone (PRG). The molar ratios of the QD, TF, and DNA in the sensor were controlled through the stoichiometric ratios of the mixed parts.
Two fluorescent spectra were recorded, one from the QDs and one from the Cy5 due to the FRET.
First, the DNA1 (most binding sequence) has been used to build the first biosensor, named sensor 1. For this sensor, a ratio of QD/TF/DNA of 1/4/18 was chosen. […] In order to homogenize the fluorescent signals in between batches and different sensor variations, FA/FD was normalized to give the signal output. Signal output is then plotted against PRG concentration to give a dose-response curve (FIG. 9C) This curve was fitted with the non-linear equation XX to obtain the half-maximal inhibitory concentration (IC50) (Table 13).
(§2) Description for a typical experiment, using a molar ratio of QD/TF/DNA=1/4/18. QDs in (275 uL, 0.15 uM in HEPES 1×, pH 7.6 with 1% BSA) were mixed with AIY-his6 (275 uL, 0.6 uM in HEPES 1× pH 7.6) at room temperature for 45 min. Then, the double-stranded DNA labelled with a Cy5 fluorescent probe at the 3′ and 5′ ends (275 uL, 2.7 uM in HEPES 1× pH 7.6) was added to the mixture. After 30 min, 220 uL of HEPES 1× pH 7.5 and 330 uL of 5× binding buffer (25 mM MgCl2, 25% glycerol, and 250 mg/L Invitrogen™ UltraPure™ Salmon Sperm DNA in Tris-HCl 0.1M) were added and the mixture is left 15 more min at RT.
(§3) 50 uL of the sensor (QD/TF/DNA) was then splitted in 3×9 centrifuge tubes to which 10 uL of progesterone at the desired concentration is added. As such, the final concentration of QD/TF/DNA for the measurements is 25 nM/100 nM/450 nM. A 384 well plate was filled with 60 uL of each solution. The fluorescence intensity was monitored on a spectrofluorimeter from 535 nm to 800 nm exciting at 400 nm, equipped with a 450 nm long-pass filter in emission.

[2] = biological target: PinR (Nocardioides simplex (Pimelobacter simplex), UniProt A0A0A1DUF2); test: Cross-reactivity assay of steroids using sensor 3; type: biochemical; conditions: sensor 3, HEPES 1×, 0 to 10 uM of steroids
Chain of PinR (A0A0A1DUF2 entry or part of it): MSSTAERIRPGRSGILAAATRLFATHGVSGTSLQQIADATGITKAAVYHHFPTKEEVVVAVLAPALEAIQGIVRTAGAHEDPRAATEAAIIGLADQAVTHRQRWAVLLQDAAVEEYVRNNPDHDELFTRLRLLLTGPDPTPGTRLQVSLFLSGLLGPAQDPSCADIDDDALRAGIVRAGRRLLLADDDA
Method: The cross-reactivity of progesterone regarding the different steroids was calculated with the following equation:
Description for a typical experiment, using a molar ratio of QD/TF/DNA=1/4/18.
as §3, with “As such, the final concentration of QD/TF/DNA for the measurements is 25 nM/100 nM/450 nM.” left out

[3] = tested on: Pimelobacter simplex; test: Solvent and steroid exposure growth curves
From the text: In order to identify steroid binding Transcription Factors, a whole transcriptome RNA sequencing (RNA-Seq) screen was developed (FIG. 7). The growth of Pimelobacter simplex bacteria was profiled with respect to the starting inoculation density, solvent toxicity, and the addition of steroids (FIG. 16). […] P. simplex bacteria were screened against the steroid solvents ethanol (EtOH) and dimethyl sulfoxide (DMSO). […] Steroid growth curves were similarly performed using a starting OD of 0.005 and constant solvent dosing with titrations of steroids. […] P. simplex bacteria were grown in the presence of 700 μM testosterone, 21.88 μM progesterone, 87.50 μM estrone, 21.88 μM 17β-estradiol, 21.88 μM hydrocortisone, or 175.00 μM aldosterone concentrations were selected for comparison.
In order to properly determine the doubling time of the strain, growth curves were performed. All growth curves were done in 100 μL per well volumes in 96 well flat clear bottom black polystyrene TC-treated microplates which were individually wrapped with a lid and sterile (Corning #3603). Measurements were done by an Infinite M200 Pro (TECAN) spectrophotometer at the temperature suited for P. simplex. Readings were performed over 96 cycles of 15 minutes each at 600 nm absorbance with 25 flashes in a 3×3 (XY-Line) type reads per well. In between reads there was orbital shaking at 150 rpm frequency for a total of 10 minutes. In order to characterize the growth alone, a ½ serial dilution of 9 concentrations from 0.5-0.0020 OD600 nm were prepared in the respective media. Then each concentration was measured as previously described using a microplate reader (TECAN) and normalized against a media background control in technical triplicate. Afterward, an appropriate starting concentration of cells was chosen with a substantially long lag-phase, linear log phase, and a plateau of stationary-phase.
Once an appropriate starting cell concentration was chosen, a secondary growth curve was performed to test the toxicity levels of the solvents used to dissolve steroids of interest. Since the steroids used are heavily hydrophobic, they often need to be dissolved in organic solvents such as DMSO or ethanol which are toxic to bacteria at high concentrations. P. simplex was incubated under microplate reader conditions previously mentioned at a starting OD determined by the first growth curve with DMSO, ethanol, or H2O at ½ serial dilutions for a total of eight concentrations (50-0.39%) tested in technical triplicate. Two controls were included per solvent; a positive control without solvent and a media control which allowed for appropriate normalization. Solvent exposure growth curves allowed for choosing the maximum amount of solvent concentration that strains would sustain while maintaining relative viability in order to determine a range of steroid concentrations which could be used.
A tertiary growth curve was performed to test the toxicity levels of steroid specific to P. simplex. The strain was incubated under microplate reader conditions previously mentioned at a starting OD determined by the first growth curve and the highest solvent concentration corresponding to the steroid of interest with steroid at ½ serial dilutions for a total of seven concentrations tested in singlet. Testosterone, progesterone, 17β-estradiol, hydrocortisone, and aldosterone were all dissolved in ethanol while estrone was dissolved in DMSO. Three controls were included for each steroid; a positive control with the highest tolerable solvent concentration (%), a positive control with media, and a media control which allowed for normalization. Steroid exposure growth curves allowed for choosing the maximum amount of steroid concentration that P. simplex would sustain while maintaining relative viability.

[4] = QD-FRET sensor progesterone titration in HEPES 1×; type: biochemical
Method: as §1
Raw dose-response curves were obtained by plotting FA/FD as a function of the steroid concentration. Sensor output is the normalization of the fluorescent spectra of the donor and acceptor according to the following equation:
[formula] Where F=FA/FD, Fi is for [PRG]=i, Fmin stands for the average on 3 experiments of F for [PRG]=0 nM and Fmax stands for the average on 3 experiments of F for [PRG]=10 uM.
Non-normalized dose-response were fitted with Origin Pro 8 software with the non-linear equation:
Mathematically, the limit of detection in the signal domain (LD) is given by:LD=meanblank−3.3×σtest LD=meanblank−3.3×σtest where meanblank is the mean signal for a reagent blank and σtest is the pool standard deviation for all test samples in the dilution series, calculated as[9]:
Then the Limit of detection (LOD) is calculated using the parameters of the fit with the non-linear equation (XX) for y=LD:
as §2, §3

Compound: CC(C)CCC[C@@H](C)[C@H]1CC[C@H]2[C@@H]3CC=C4C[C@@H](O)CC[C@]4(C)[C@H]3CC[C@]12C [CHL, Cholesterol]
cross-reactivity (in words) [1]: No cross-reactivity was observed
cross-reactivity [2]: No cross-reactivity

highest solvent concentration that did not produce a physiological change in growth ([3]; P. simplex vs solvent-free control): 0.35 % by volume
Compound: C[S+](C)[O-] [DMSO, dimethyl sulfoxide]

Compound: C[C@H](O)[C@H]1CC[C@H]2[C@@H]3CC[C@@H]4C[C@H](O)CC[C@]4(C)[C@H]3CC[C@]12C [PRE, 5β-Pregnane-3α,20-α-diol]
cross-reactivity (in words) [1]: No cross-reactivity was observed
cross-reactivity [2]: No cross-reactivity

Compound: DNA2: Cy5-labelled PinR binding probe 5Cy5-GCCTAACTAGCCGATCGGCTAGTCATTC-3Cy5 (SEQ ID NO: 26) (DNA, 5' {Cy5}, 3' {Cy5}, backbone and methylation of C not given here; hybridized with complementary strand to form double-stranded fluorescent oligo)
[Pro]min ([4]; QD/TF/DNA=1/4/18, [QD]=25 nM): 0.051 µM

highest solvent concentration that did not produce a physiological change in growth [3]: 0.70 % by volume
Compound: CCO [EtOH, ethanol]

Compound: C[C@H](O)[C@H]1CC[C@H]2[C@@H]3CC[C@@H]4C[C@H](O[C@@H]5O[C@H](C(=O)O)[C@@H](O)[C@H](O)[C@H]5O)CC[C@]4(C)[C@H]3CC[C@]12C [PRE-glu, 5β-Pregnane-3α,20-α-diol glucuronide]
cross-reactivity (in words) [1]: No cross-reactivity was observed
cross-reactivity [2]: No cross-reactivity

Compound: DNA3: Cy5-labelled PinR binding probe 5Cy5-GCCTAACTAGCCGTTCGGCAAGTAATTC-3Cy5 (SEQ ID NO: 28) (DNA, 5' {Cy5}, 3' {Cy5}, backbone and methylation of C not given here; hybridized with complementary strand to form double-stranded fluorescent oligo)
[Pro]min ([4]; DNA 3, QD/TF/DNA 1/1/2): 0.040 µM
[Pro]min ([4]; DNA 3, QD/TF/DNA 1/1/18): 0.072 µM
[Pro]min ([4]; DNA 3, QD/TF/DNA 1/2/2): 0.053 µM
[Pro]min ([4]; DNA 3, QD/TF/DNA 1/2/18): 0.070 µM
[Pro]min ([4]; DNA 3, QD/TF/DNA 1/4/2): 0.050 µM
[Pro]min ([4]; DNA 3, QD/TF/DNA 1/4/18): 0.040 µM
[Pro]min ([4]; DNA 3, QD/TF/DNA 1/10/18): 0.065 µM
[Pro]min ([4]; DNA 3, QD/TF/DNA 1/16/18): 0.075 µM
[Pro]min ([4]; QD/TF/DNA=1/4/18, [QD]=25 nM): 0.040 µM

Compound: DNA1: Cy5-labelled PinR binding probe 5Cy5-GCCTAACTAGCCGTTCGGCTAGTTATTC-3Cy5 (SEQ ID NO: 24) (DNA, 5' {Cy5}, 3' {Cy5}, backbone and methylation of C not given here; hybridized with complementary strand to form double-stranded fluorescent oligo)
[Pro]min ([4]; QD/TF/DNA=1/4/18, [QD]=25 nM): 0.073 µM

Compound: DNA4: Cy5-labelled PinR binding probe 5Cy5-CCTTAACTAGCCGTTCTGTTAGTTATT C-3Cy5 (SEQ ID NO: 30) (DNA CCTTAACTAGCCGTTCTGTTAGTTATTC; DNA, 5' {Cy5}, 3' {Cy5}, backbone and methylation of C not given here; hybridized with complementary strand to form double-stranded fluorescent oligo)
[Pro]min ([4]; DNA 4, QD/TF/DNA 1/1/4): 0.024 µM
[Pro]min ([4]; DNA 4, QD/TF/DNA 1/1/18): 0.017 µM
[Pro]min ([4]; DNA 4, QD/TF/DNA 1/4/9): 0.066 µM
[Pro]min ([4]; DNA 4, QD/TF/DNA 1/4/18): 0.044 µM
[Pro]min ([4]; DNA 4, QD/TF/DNA 1/16/8): 0.190 µM
[Pro]min ([4]; QD/TF/DNA=1/4/18, [QD]=25 nM): 0.044 µM
